Measured values: patent US20120027687A1, “FATTY ACID PROTEIN KINASE C ACTIVATORS AND ANTICOAGULANT FOR THE TREATMENT OF STROKE” (priority 2010, published 2012)

Columns and labels:
PKCε [1] = target: T1, PKCε (Homo sapiens, UniProt Q02156); test: PKC assay with purified PKCε; format: biochemical
T1 construct: purchased Calbiochem
T1 sequence (Q02156 1-737): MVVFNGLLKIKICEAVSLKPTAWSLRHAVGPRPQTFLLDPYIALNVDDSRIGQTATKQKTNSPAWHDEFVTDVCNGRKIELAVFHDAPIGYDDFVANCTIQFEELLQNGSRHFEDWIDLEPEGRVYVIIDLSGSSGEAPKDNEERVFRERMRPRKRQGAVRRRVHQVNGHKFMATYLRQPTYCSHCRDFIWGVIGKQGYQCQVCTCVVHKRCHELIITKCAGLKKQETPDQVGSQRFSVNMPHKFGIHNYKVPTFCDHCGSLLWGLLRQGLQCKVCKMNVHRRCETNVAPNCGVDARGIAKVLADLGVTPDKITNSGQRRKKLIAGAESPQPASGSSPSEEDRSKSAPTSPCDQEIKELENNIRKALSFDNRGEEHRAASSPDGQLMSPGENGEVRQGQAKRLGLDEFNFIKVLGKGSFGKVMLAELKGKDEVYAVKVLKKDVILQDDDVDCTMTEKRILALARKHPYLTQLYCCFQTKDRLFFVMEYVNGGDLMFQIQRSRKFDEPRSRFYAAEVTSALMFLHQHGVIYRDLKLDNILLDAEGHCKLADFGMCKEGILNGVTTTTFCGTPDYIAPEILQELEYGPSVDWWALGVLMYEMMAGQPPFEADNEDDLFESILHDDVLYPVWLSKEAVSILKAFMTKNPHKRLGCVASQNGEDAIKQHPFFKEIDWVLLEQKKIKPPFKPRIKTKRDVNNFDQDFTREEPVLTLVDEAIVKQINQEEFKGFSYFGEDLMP
Method: PKC assay. […] 0.5 micro Ci[^γ32P]ATP was added. […] The reaction was stopped by spotting the reaction mixtures on 1×2 cm strips of cellulose phosphate paper (Whatman P81) and immediately washing twice for 1 hr in 0.5% H3PO4. The cellulose phosphate strips were counted in a scintillation counter. In some experiments, phosphatidylserine, diacylglycerol, and/or calcium were removed. […]
(§1) To determine their PKC isozyme specificity, fatty acid derivatives were preincubated with purified PKC for five minutes and the PKC activity was measured radiometrically.

PKC = PKC activation over time in hippocampal primary neurons; format: cell-based, rat
Method: Cell culture. Rat hippocampal H19-7/IGF-IR cells (ATCC, Manassas, Va.) were plated onto poly-L-lysine coated plates and grown at 35° C. in DMEM/10% FCS for several days until about 50% coverage was obtained. The cells were then induced to differentiate into a neuronal phenotype by replacing the medium with 5 ml N2 medium containing 10 ng/ml basic fibroblast growth factor at 39° C. and grown in T-75 flasks at 37° C. Human SH-SY5Y neuroblastoma cells (ATCC) were cultured in 45% F12K/45% MEM/10% FCS. Mouse N2A neuroblastoma cells were cultured in DMEM/10% FCS without glutamine. Rat hippocampal neurons from 18-day-old embryonic Sprague Dawley rat brains were plated on 12- or 96-well plates coated with poly-D-lysine (Sigma-Aldrich, St. Louis, Mo.) in B-27 neurobasal medium containing 0.5 mM glutamine and 25 μM glutamate (Invitrogen, Carlsbad, Calif.) and cultured for three days in the medium without glutamate. The neuronal cells were grown under 5% CO2 in an incubator maintained at 37° C. for 14 days.
Protein kinase C assay. […] 0.5 Ci [^γ32P]ATP was added and ^32P-phosphoprotein formation was measured by adsorption onto phosphocellulose as described previously. […] PKC activity was measured in the absence of diacylglycerol and phosphatidylserine and PKC δ, ε, η, and μ were measured in the absence of added EGTA and CaCl2, as described by Kanno et al. (J. Lipid Res. 2006, vol. 47, pp. 1146-1150). […]

[2] = test system: SH-SY5Y neuroblastoma cells; test: Cell survival and proliferation (alamar Blue, CyQuant); format: cell-based, human; conditions: alamar Blue and CyQuant staining
Method: Aβ Measurement and Cell Viability Assay. Aβ was measured using an Aβ 1-42 human fluorimetric ELISA kit (Invitrogen) according to the manufacturer's instructions. Results were measured in a Biotek Synergy HT microplate reader. AlamarBlue and CyQuant NF (Invitrogen) according to the manufacturer's instructions.

other PKC isoforms = test: PKC isozyme specificity, other isoforms; format: biochemical; conditions: at 10 μM, data not shown
Method: Protein kinase C assay. Rat hippocampal cells were cultured and scraped in 0.2 ml homogenization buffer (20 mM Tris-HCl, pH 7.4, 50 mM NaF, 1 μg/ml leupeptin, and 0.1 mM PMSF) and homogenized by sonication a Marsonix microprobe sonicator (5 sec, 10W). To measure PKC, 10 μl of cell homogenate or purified PKC isozyme (purchased from Calbiochem) was incubated for 15 min at 37° C. in the presence of 10 μM histones, 4.89 mM CaCl2, 1.2 μg/μl phosphatidyl-L-serine, 0.18 μg/μl 1,2-dioctanoyl-sn-glycerol, 10 mM MgCl2, 20 mM HEPES (pH 7.4), 0.8 mM EDTA, 4 mM EGTA, 4% glycerol, 8 μg/ml aprotinin, 8 μg/ml leupeptin, and 2 mM benzamidine. 0.5 Ci [^γ32P]ATP was added and ^32P-phosphoprotein formation was measured by adsorption onto phosphocellulose as described previously. Nelson and Alkon, J. Neurochemistry (1995), vol. 65, pp. 2350-2357. For measurements of activation by BR-101 (DCP-LA) and similar compounds. PKC activity was measured in the absence of diacylglycerol and phosphatidylserine and PKC δ, ε, η, and μ were measured in the absence of added EGTA and CaCl2, as described by Kanno et al. (J. Lipid Res. 2006, vol. 47, pp. 1146-1150). […]
as §1

TACE = TACE activity in neuronal cells; format: cell-based, human, mouse; conditions: SH-SY5Y cells, N2a cells, primary neurons from rat hippocampus
Method: TACE Assay. TACE was measured by incubating 5 μl cell homogenate, 3 μl buffer (50 mM Tris-HCl 7.4 plus 25 mM NaCl plus 4% glycerol), and 1 μl of 100 μM TACE substrate (Aβz-[…]-DPa) (Calbiochem) for 20 min at 37° C. 1.5-ml polypropylene centrifuge tubes. Jin et al., Anal. Biochem. (2002), vol. 302, pp. 269-275. The reaction was stopped by cooling to 4° C. The samples were diluted to 1 ml and the fluorescence was rapidly measured (ex=320 nm, em=420 nm) in a Spex Fluorolog 2 spectrofluorometer.

PKCε [3] = target: T1, PKCε; conditions: cited from earlier work

## CCCCCC1CC1CC1CC1CCCCCCCC(=O)O (centres unmarked) [BR-101, 2-[(2-pentylcyclopropyl)methyl]cyclopropaneoctanoic acid]
PKCε [1]; 10 nM, lowest concentration tested
  activation of PKCε: 2.75 fold
PKCε [1]; at 10 μM
  activation of PKCε: effective activator
PKC
  duration of elevated PKC: remained elevated for at least four hours
[2]
  effect on cell survival: no effect
  effect on proliferation: no effect
Other PKC isoforms
  effects on the other PKC isoforms: relatively small effects
TACE
  TACE activity: small increases
PKCε [3]
  concentration of maximal effect on PKCε: 100 nM
